# Experimental data: patent US10428081B2, “EGFR inhibitor, preparation method and use thereof” (Shanghai Hansoh Biomedical Co., Ltd., priority 2014, dated 2019)
# Like-named read-outs stand apart in the source and are kept apart here.
# What was measured:
# NCI-H1975 cells = assay: Inhibition of NCI-H1975 cell proliferation (CellTiter-Glo); type: cell-based; conditions: for IC50: NCI-H1975 cell proliferation, 72 hours, CellTiter-Glo, read-out: EGFR IC50 (nM) H1975; for Selectivity of wild-type/mutant-type: ratio A431 IC50 / H1975 IC50, cells
# wild-type EGFR enzyme = wild-type EGFR enzyme (Homo sapiens, UniProt P00533); assay: Enzymologic experiment of wild-type (WT) EGFR (TR-FRET); type: biochemical; conditions: ATP 0.1 to 5 uM
# Summary of the method: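 Wild-type EGFR (0.1 to 1 nM final) preincubated with serially diluted compound for 10 minutes at room temperature; reaction stopped with EDTA, then labelled antibody added for 1 hour at room temperature. TR-FRET signal converted to inhibition rates; IC50 from curve fitting across concentrations.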
# A431 cells = assay: Inhibition of A431 cell proliferation (CellTiter-Glo); type: cell-based; conditions: read-out: EGFR IC50 (nM) A431
# Description: 4. Experiment on the Inhibition of A431 Cell Proliferation
# In this experiment, the inhibitory effect of the compounds on A431 cell proliferation was tested by a CellTiter-Glo method, and the half maximal inhibitory concentration (IC50) of the compounds on the activity of cell proliferation was determined.
# The culture plate was incubated in the incubator for 16 to 24 hours (37° C., 5% CO2).
# 2) Different concentrations of the test compound in a gradient dilution were added to the cells in the culture plate. The culture plate was incubated in an incubator for 72 hours (37° C., 5% CO2).
# 3) 50 to 100 μL of CellTiter-Glo reagent was added to each well. Then the culture plate was shaken for 10 minutes, and left to stand at room temperature for 10 minutes.
# 4) The chemiluminescence signal values of each plate were determined by a microplate reader.
# 5) The inhibition rates were calculated according to the chemiluminescence signal values. 6) The IC50 of the compound was obtained by curve fitting according to the inhibition rates at different concentrations.
# [1] = target: exon 20 T790M mutant-type EGFR enzyme (Homo sapiens, UniProt P00533, T790M); assay: Enzymologic experiment of T790M mutant-type EGFR (TR-FRET); type: biochemical; conditions: for IC50: T790M EGFR enzyme, TR-FRET, ATP 1 to 10 uM; for Selectivity of wild-type/mutant-type: ratio WT IC50 / T790M IC50, enzyme
# Summary of the method: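 Compound dilutions preincubated 10 min at room temperature; reaction ended with EDTA, then labeled antibody added for 1 h at room temperature. Inhibition rates derived from TR-FRET fluorescence signal, and IC50 obtained by curve fitting across concentrations.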
# Chain of wild-type EGFR enzyme (P00533 25-1210): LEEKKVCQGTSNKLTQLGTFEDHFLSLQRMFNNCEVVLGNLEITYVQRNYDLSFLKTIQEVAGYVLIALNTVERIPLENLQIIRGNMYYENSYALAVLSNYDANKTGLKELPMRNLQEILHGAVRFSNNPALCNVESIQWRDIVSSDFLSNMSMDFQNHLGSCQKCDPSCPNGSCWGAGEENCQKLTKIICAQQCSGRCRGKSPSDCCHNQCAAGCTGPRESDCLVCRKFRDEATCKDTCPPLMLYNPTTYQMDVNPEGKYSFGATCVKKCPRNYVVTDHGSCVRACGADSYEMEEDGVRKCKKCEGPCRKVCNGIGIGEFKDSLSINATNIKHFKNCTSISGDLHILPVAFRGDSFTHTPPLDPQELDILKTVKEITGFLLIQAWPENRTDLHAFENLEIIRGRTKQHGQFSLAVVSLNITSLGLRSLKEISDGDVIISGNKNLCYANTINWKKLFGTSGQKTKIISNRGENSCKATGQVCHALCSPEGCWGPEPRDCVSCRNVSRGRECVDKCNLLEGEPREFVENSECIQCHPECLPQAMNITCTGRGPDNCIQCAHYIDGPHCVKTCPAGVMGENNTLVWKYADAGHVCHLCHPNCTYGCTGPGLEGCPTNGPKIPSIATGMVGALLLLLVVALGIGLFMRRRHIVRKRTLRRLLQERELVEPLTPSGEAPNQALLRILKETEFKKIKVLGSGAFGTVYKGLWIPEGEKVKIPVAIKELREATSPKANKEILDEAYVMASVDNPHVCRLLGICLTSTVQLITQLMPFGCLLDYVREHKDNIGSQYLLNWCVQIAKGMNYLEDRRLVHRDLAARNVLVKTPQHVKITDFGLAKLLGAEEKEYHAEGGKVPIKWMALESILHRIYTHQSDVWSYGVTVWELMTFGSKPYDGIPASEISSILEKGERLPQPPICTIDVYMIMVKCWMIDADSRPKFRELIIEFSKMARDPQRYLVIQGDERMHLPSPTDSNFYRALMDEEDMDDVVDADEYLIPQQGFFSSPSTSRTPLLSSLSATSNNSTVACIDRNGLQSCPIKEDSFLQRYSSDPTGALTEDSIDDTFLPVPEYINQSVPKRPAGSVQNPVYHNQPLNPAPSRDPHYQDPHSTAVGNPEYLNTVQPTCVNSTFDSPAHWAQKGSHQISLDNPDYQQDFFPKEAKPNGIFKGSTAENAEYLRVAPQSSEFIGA
# Chain of exon 20 T790M mutant-type EGFR enzyme (P00533 25-1210 T790M): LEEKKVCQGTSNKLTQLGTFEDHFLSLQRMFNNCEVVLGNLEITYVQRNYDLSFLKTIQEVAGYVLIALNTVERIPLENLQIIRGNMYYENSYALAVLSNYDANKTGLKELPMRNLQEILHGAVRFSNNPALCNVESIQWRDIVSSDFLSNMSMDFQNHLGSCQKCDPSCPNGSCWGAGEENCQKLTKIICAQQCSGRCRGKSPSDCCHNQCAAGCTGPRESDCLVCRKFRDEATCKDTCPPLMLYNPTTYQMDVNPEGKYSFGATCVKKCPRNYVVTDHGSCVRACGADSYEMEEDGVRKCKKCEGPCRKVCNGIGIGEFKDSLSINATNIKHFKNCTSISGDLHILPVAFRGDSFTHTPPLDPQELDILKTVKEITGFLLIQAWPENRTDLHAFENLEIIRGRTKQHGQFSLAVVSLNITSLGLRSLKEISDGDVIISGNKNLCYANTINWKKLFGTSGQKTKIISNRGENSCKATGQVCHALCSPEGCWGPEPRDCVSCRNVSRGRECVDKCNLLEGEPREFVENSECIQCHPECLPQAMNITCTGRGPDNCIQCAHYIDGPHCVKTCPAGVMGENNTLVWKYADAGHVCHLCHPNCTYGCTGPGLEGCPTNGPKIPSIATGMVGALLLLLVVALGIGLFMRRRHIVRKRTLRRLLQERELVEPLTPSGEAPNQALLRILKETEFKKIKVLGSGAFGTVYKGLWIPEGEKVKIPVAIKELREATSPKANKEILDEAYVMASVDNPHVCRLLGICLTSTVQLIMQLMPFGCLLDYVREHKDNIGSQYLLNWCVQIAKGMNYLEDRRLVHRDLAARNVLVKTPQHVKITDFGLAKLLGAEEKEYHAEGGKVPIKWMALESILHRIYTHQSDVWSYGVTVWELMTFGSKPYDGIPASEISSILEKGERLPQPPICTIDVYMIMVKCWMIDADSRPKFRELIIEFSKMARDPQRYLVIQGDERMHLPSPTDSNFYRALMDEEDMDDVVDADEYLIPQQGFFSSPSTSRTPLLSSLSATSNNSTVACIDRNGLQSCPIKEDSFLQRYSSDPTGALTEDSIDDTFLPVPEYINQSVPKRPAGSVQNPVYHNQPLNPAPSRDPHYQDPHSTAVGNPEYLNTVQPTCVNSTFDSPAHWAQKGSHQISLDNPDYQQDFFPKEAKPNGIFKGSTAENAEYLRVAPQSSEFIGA
Structure (SMILES),"IC50 (NCI-H1975 cells; Homo sapiens, NCI-H1975, 72 h) [nM]",Selectivity of wild-type/mutant-type (NCI-H1975 cells),IC50 (wild-type EGFR enzyme) [nM],"IC50 (A431 cells; Homo sapiens, A-431, 72 h) [nM]",IC50 [1] [nM],Selectivity of wild-type/mutant-type [1],IC50 (NCI-H1975 cells) [nM],IC50 (A431 cells; 72 hours) [nM]
"C=CC(=O)Nc1cc(Nc2nccc(-c3cn(C4CC4)c4ccccc34)n2)c(OC)cc1N(C)CCN1CCCC1 [Example 123, N-(5-((4-(1-cyclopropyl-1H-indol-3-yl)pyrimidin-2-yl)amino)-4-methoxy-2-(methyl(2-(pyrrolidin-1-yl)ethyl)amino)phenyl)acrylamide]",14.9,35.37,27.2,527,1.28,21.23,,
"C=CC(=O)Nc1cc(Nc2nccc(-c3cn(C)c4ccc(OC)cc34)n2)c(OC)cc1N(C)CCN(C)C [Example 24, N-(2-((2-(dimethylamino)ethyl)(methyl)amino)-4-methoxy-5-((4-(5-methoxy-1-methyl-1H-indol-3-yl)pyrimidin-2-yl)amino)phenyl)acrylamide]",8.62,52.59,4.02,453,3.53,1.1,,
"C=CC(=O)Nc1cc(Nc2nccc(-c3cn(C)c4ccc(F)c(F)c34)n2)c(OC)cc1N(C)CCN(C)C [Example 90, N-(5-((4-(4,5-difluoro-1-methyl-1H-indol-3-yl)pyrimidin-2-yl)amino)-2-((2-(dimethylamino)ethyl)(methyl)amino)-4-methoxyphenyl)acrylamide]",6.32,16.72,4.91,106,1.14,4.31,,
"C=CC(=O)Nc1cc(Nc2nccc(-n3ncc4ccccc43)n2)c(OC)cc1N(C)CCN(C)C [Example 40, N-(5-((4-(1H-indazol-1-yl)pyrimidin-2-yl)amino)-2-((2-(dimethylamino)ethyl)(methyl)amino)-4-methoxyphenyl)acrylamide]",1.95,174.05,3.36,339,0.39,8.62,,
"C=CC(=O)Nc1cc(Nc2nccc(-c3cn(C)c4cc(C5CC5)ccc34)n2)c(OC)cc1N(C)CCN(C)C [Example 22, N-(5-((4-(6-cyclopropyl-1-methyl-1H-indol-3-yl)pyrimidin-2-yl)amino)-2-((2-(dimethylamino)ethyl)(methyl)amino)-4-methoxyphenyl)acrylamide]",13.2,60.6,7.44,800,0.71,10.4,,
"C=CC(=O)Nc1cc(Nc2nccc(-n3nc(C4CC4)c4ccccc43)n2)c(OC)cc1N(C)CCN(C)C [Example 44, N-(5-((4-(3-cyclopropyl-1H-indazol-1-yl)pyrimidin-2-yl)amino)-2-((2-(dimethylamino)ethyl)(methyl)amino)-4-methoxyphenyl)acrylamide]",7.13,56.93,2.5,406,0.38,6.58,,
"C=CC(=O)Nc1cc(Nc2ncc(Cl)c(-n3nc(CC)c4cc(C#N)ccc43)n2)c(OC)cc1N(C)CCN(C)C [Example 118, N-(5-((5-chloro-4-(5-cyano-3-ethyl-1H-indazol-1-yl)pyrimidin-2-yl)amino)-2-((2-(dimethylamino)ethyl)(methyl)amino)-4-methoxyphenyl)acrylamide]",93.7,3.99,27.9,374,0.71,39.30,,
"C=CC(=O)Nc1cc(Nc2nccc(-c3c[nH]c4c(C5CC5)cccc34)n2)c(OC)cc1N(C)CCN(C)C [Example 92, N-(5-((4-(7-cyclopropyl-1H-indol-3-yl)pyrimidin-2-yl)amino)-2-((2-(dimethylamino)ethyl)(methyl)amino)-4-methoxyphenyl)acrylamide]",1.95,4.73,0.4,9.22,0.16,2.5,,
"C=CC(=O)Nc1cc(Nc2ncc(C(F)(F)F)c(-c3cn(S(=O)(=O)N(C)C)c4cc(OC)ccc34)n2)c(OC)cc1N(C)CCN(C)C [Example 143, N-(2-((2-(dimethylamino)ethyl)(methyl)amino)-5-((4-(1-(N,N-dimethylsulfamoyl)-6-methoxy-1H-indol-3-yl)-5-(trifluoromethyl)pyrimidin-2-yl)amino)-4-methoxyphenyl)acrylamide]",8.29,45.44,4.18,377,0.44,9.50,,
"C=CC(=O)Nc1cc(Nc2ncc(Cl)c(-n3cnc4cc(OC)ccc43)n2)c(OC)cc1N(C)CCN(C)C [Example 63, N-(5-((5-chloro-4-(5-methoxy-1H-benzo[d]imidazol-1-yl)pyrimidin-2-yl)amino)-2-((2-(dimethylamino)ethyl)(methyl)amino)-4-methoxyphenyl)acrylamide]",1.87,37.97,14.9,71,0.36,41.53,,
"C=CC(=O)Nc1cc(Nc2nccc(-c3cn(C)c4cc(OC)ccc34)n2)c(OC)cc1N(C)CCN(C)C [Example 25, N-(2-((2-(dimethylamino)ethyl)(methyl)amino)-4-methoxy-5-((4-(6-methoxy-1-methyl-1H-indol-3-yl)pyrimidin-2-yl)amino)phenyl)acrylamide]",4.56,20.45,7.11,93.2,0.36,19.9,,
"C=CC(=O)Nc1cc(Nc2nccc(-n3nc(C)c4cc(C#N)ccc43)n2)c(OC)cc1N(C)CCN(C)C [Example 56, N-(5-((4-(5-cyano-3-methyl-1H-indazol-1-yl)pyrimidin-2-yl)amino)-2-((2-(dimethylamino)ethyl)(methyl)amino)-4-methoxyphenyl)acrylamide]",7.08,97.25,16.3,688,1.54,10.56,,
"C=CC(=O)Nc1cc(Nc2nccc(-c3cn(S(=O)(=O)N(C)C)c4ccccc34)n2)c(OC(F)F)cc1N(C)CCN(C)C [Example 21, N-(4-(difluoromethoxy)-2-((2-(dimethylamino)ethyl)(methyl)amino)-5-((4-(1-(N,N-dimethylsulfamoyl)-1H-indol-3-yl)pyrimidin-2-yl)amino)phenyl)acrylamide]",3.23,21.93,0.4,70.8,0.3,1.33,,
"C=CC(=O)Nc1cc(Nc2nccc(-n3nc(C4CC4)c4ccccc43)n2)c(OC)cc1N(C)CCN(C)C [Example 111, N-(5-((4-(3-cyclopropyl-1H-indazol-1-yl)pyrimidin-2-yl)amino)-2-((2-(dimethylamino)ethyl)(methyl)amino)-4-methoxyphenyl)acrylamide]",,55.52,2.77,,0.42,6.60,5.65,314
"C=CC(=O)Nc1cc(Nc2ncc(C(F)(F)F)c(-n3nc(C)c4cc(C#N)ccc43)n2)c(OC)cc1N(C)CCN(C)C [Example 106, N-(5-((4-(5-cyano-3-methyl-1H-indazol-1-yl)-5-(trifluoromethyl)pyrimidin-2-yl)amino)-2-((2-(dimethylamino)ethyl)(methyl)amino)-4-methoxyphenyl)acrylamide]",14.3,24.70,190,354,0.88,216.14,,
"C=CC(=O)Nc1cc(Nc2nccc(-c3cn4c5c(cccc35)CCC4)n2)c(OC)cc1N(C)CCN(C)C [Example 125, N-(5-((4-(5,6-dihydro-4H-pyrrolo[3,2,1-ij]quinolin-1-yl)pyrimidin-2-yl)amino)-2-((2-(dimethylamino)ethyl)(methyl)amino)-4-methoxyphenyl)acrylamide]",9.58,40.18,13,385,1.42,9.15,,
